Experimental data reported in paper PMC6891756, “Synthesis and Biological Evaluation of Novel Aminochalcones as Potential Anticancer and Antimicrobial Agents” (Molecules, 2019).
≈ marks a conversion by molar mass, not a printed value. Like-named read-outs stand apart in the source and are kept apart here.

What was measured:
[1] = tested on: Staphylococcus aureus DSM799; assay: MIC evaluation (broth method), S. aureus; format: cell-based; settings: 48–72 h, read-out: Minimal inhibitory concentration S. aureus
Experimental: (§1) Sterile 96-well microtiter plates (Sarstedt) with nutrient broth (for bacteria) (Biocorp) or YM medium (for yeast and filamentous fungi) were inoculated with a standardized cell suspension of bacteria and yeast or fungal spores of 10^5 cell·mL^−1, and supplemented with aminochalcones dissolved in DMSO. […] All analysis were conducted in triplicates. The plates were incubated at 30 °C (bacteria and yeast) or 25 °C (filamentous fungi) for 48–72 h. The results were measured with the Spark® Multimode Microplate Reader (Tecan, Männedorf, Switzerland) at a 560 nm wavelength. The minimal inhibitory concentration was defined as the lowest concentration of a tested compound that completely restricted the growth of the microorganism. In order to verify the obtained results, microbial cultures subjected to each concentration of aminochalcone were inoculated onto nutrient agar or YM plates and incubated as described above. The lack of growth on agar plate was a confirmation of the MIC of the tested compound. The resulting MIC values were compared with the reference substances: oxytetracycline (against bacteria), cycloheximide (against yeast) and nystatin (against fungi) (Sigma Aldrich).

[2] = tested on: LoVo/DX; assay: SRB antiproliferative assay, LoVo/DX; format: cell-based, human; settings: Homo sapiens, LoVo/DX, 48 h, 1–100 µg·mL^−1, ND = not detected in the tested concentration range
How it was run: (§2)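 48 h exposure, 1–100 µg·mL^−1; sulforhodamine B endpoint; IC50 (3 expts).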

[3] = SRB assay, normal fibroblasts COS7; format: cell-based, green monkey; settings: green monkey, COS7 kidney fibroblasts (normal cell line), ND = not detected in the tested concentration range
How it was run: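 Cells seeded at 5·10^3/well overnight, then exposed to aminochalcone derivatives at 1–100 µg·mL^−1 for 48 h at 37 °C and stained with sulforhodamine B. IC50 calculated from three independent experiments, each run in quadruplicate.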

[4] = tested on: LS180; assay: SRB antiproliferative assay, LS180; format: cell-based, human; settings: Homo sapiens, LS180, 48 h, 1–100 µg·mL^−1, ND = not detected in the tested concentration range
How it was run: as §2

[5] = tested on: LoVo; assay: SRB antiproliferative assay, LoVo; format: cell-based, human; settings: Homo sapiens, LoVo, 48 h, 1–100 µg·mL^−1, ND = not detected in the tested concentration range
How it was run: as §2

[6] = tested on: HT-29; assay: SRB antiproliferative assay, HT-29; format: cell-based, human; settings: for IC50: Homo sapiens, HT-29, SRB, 48 h, 1–100 µg·mL^−1, ND = not detected in the tested concentration range
How it was run: as §2

[7] = tested on: Aspergillus niger DSM1957; assay: MIC evaluation (broth method), A. niger; format: cell-based
Experimental: as §1

[8] = tested on: Escherichia coli ATCC10536; assay: Microbial growth curve screening, E. coli; format: cell-based; settings: 0.1% (w/v); for ∆OD E. coli: OD at 560 nm, control 1.61
How it was run: (§3)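 Broth cultures (nutrient broth for bacteria, YM medium for fungi) exposed to compound at 0.1% (w/v) final, added from DMSO solution; 28 °C with continuous shaking. OD 560 nm read every 30 min for 2–3 days, triplicates; activity given as ΔOD versus DMSO control cultures.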

[9] = tested on: Staphylococcus aureus DSM799; assay: Microbial growth curve screening, S. aureus; format: cell-based; settings: 0.1% (w/v); for ∆OD S. aureus: OD at 560 nm, control 1.67
How it was run: as §3

[10] = tested on: Alternaria alternata CBS1526; assay: Microbial growth curve screening, A. alternata; format: cell-based; settings: 0.1% (w/v); for ∆OD A. alternata: OD at 560 nm, control 1.86
How it was run: (§4)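 Each strain is cultured with the aminochalcone at a final 0.1% (w/v), bacteria in nutrient broth and fungi in YM medium, at 28 °C on a shaker. Optical density at 560 nm is recorded automatically every 30 min for 2–3 days; the ΔOD is compared with DMSO and reference-drug cultures.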

[11] = tested on: Alternaria alternata CBS1526; assay: MIC evaluation (broth method), A. alternata; format: cell-based; settings: for MIC: Alternaria alternata, CBS1526, 48–72 h, read-out: Minimal inhibitory concentration A. alternata
Experimental: as §1

[12] = tested on: Candida albicans DSM1386; assay: Microbial growth curve screening, C. albicans; format: cell-based; settings: 0.1% (w/v)
How it was run: as §4

[13] = tested on: Fusarium linii KB-F1; assay: Microbial growth curve screening, F. linii; format: cell-based; settings: 0.1% (w/v); for ∆OD F. linii: OD at 560 nm, control 1.95; for Lag-phase F. linii: control 13.5 h
How it was run: as §4

[14] = tested on: HT-29 cell line; parameters: method as in PMID 24675137; settings: cited from earlier work
[15] = tested on: Aspergillus niger DSM1957; assay: Microbial growth curve screening, A. niger; format: cell-based; settings: 0.1% (w/v); for ∆OD A. niger: OD at 560 nm, control 2.14; for Lag-phase A. niger: control 11.0 h
How it was run: as §4

[16] = tested on: Fusarium linii KB-F1; assay: MIC evaluation (broth method), F. linii; format: cell-based
Experimental: as §1

[17] = tested on: canine malignant histiocytic cell line (DH82); parameters: method as in PMID 28738308; settings: read-out: IC50 DH82 proliferation (literature); cited from earlier work
[18] = tested on: HT-29 cell line; parameters: method as in doi:10.1007/s00044-011-9549-9; settings: read-out: IC50 HT-29 (literature); cited from earlier work
[19] = tested on: Escherichia coli ATCC10536; assay: MIC evaluation (broth method), E. coli; format: cell-based; settings: 48–72 h, read-out: Minimal inhibitory concentration E. coli
How it was run: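 Broth microdilution used 10^5 cell·mL^−1 inocula in nutrient broth for bacteria or YM medium for fungi, with aminochalcones in DMSO, in triplicate. Plates were incubated 48–72 h at 30 °C (bacteria, yeast) or 25 °C (filamentous fungi) and read at 560 nm. MIC is the lowest concentration with complete growth inhibition, confirmed by absence of growth on agar subculture.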

[20] = tested on: Candida albicans DSM1386; assay: MIC evaluation (broth method), C. albicans; format: cell-based; settings: DSM1386, broth method, 48–72 h, read-out: Minimal inhibitory concentration C. albicans
Experimental: as §1

[21] = tested on: Trichophyton rubrum; parameters: method as in doi:10.1007/s10600-018-2281-7; settings: cited from earlier work
[22] = tested on: HT-29, LS180, LoVo and LoVo/DX; assay: SRB assay, all tested human colon cancer cell lines (pooled statement); format: cell-based; settings: range over HT-29, LS180, LoVo, read-out: IC50 values against all tested human colon cancer cell lines
Experimental: Anticancer activity was evaluated using the sulforhodamine B assay (SRB) on four different human colon cancer cell lines: HT-29, LS180, LoVo and LoVo/DX and green monkey kidney fibroblasts COS7 (ATCC, Manassas, VA, USA). Cell lines HT-29 and COS7 were cultured in α-MEM medium (IIET PAS, Wrocław, Poland), LS180 in OptiMEM medium (IIET PAS), LoVo and LoVo/DX in mixture of α-MEM and OptiMEM medium (1:1 (v:v)). Each culture medium was supplemented with 10% fetal bovine serum, 2 mM glutamine, 100 μg·mL^−1 penicillin, 100 μg·mL^−1 streptomycin and 0.25 μg·mL^−1 amphotericin (all supplements purchased from Gibco (Paisley, UK). Cells were incubated at 37 °C, 5% CO2 in HeraCELL 150i incubator (Thermo Fisher Scientific, Waltham, MA, USA).
For the SRB assay, cells were seeded onto 96-well plates (Sarstedt, Nümbrecht, Germany) at a density of 5·10^3/well and cultured overnight as described above. Then, the growth medium was gently removed and replaced with fresh medium, supplemented with aminochalcone derivatives in the concentration ranging from 1 µg·mL^−1 to 100 µg·mL^−1. All stock solutions were prepared in DMSO at a concentration of 10 mg·mL^−1. Cells were incubated for 48 h and then the SRB assay was performed as described previously. Each experiment was performed in quadruplicate. The final results were reported as the IC50 values calculated for three independent experiments. […]

| SMILES | IC50 [2] [µg/mL] | IC50 at 48 h [3] [µg/mL] | IC50 [4] [µg/mL] | IC50 [5] [µg/mL] | IC50 [6] [µg/mL] | ∆OD E. coli [8] | ∆OD S. aureus [9] | ∆OD A. alternata [10] | ∆OD F. linii [13] | Lag-phase F. linii [13] [h] | ∆OD A. niger [15] | Lag-phase A. niger [15] [h] | IC50 [17] [µM] | MIC80 Trichophyton rubrum (literature) [21] [µg/mL] | other results |
| --- | --- | --- | --- | --- | --- | --- | --- | --- | --- | --- | --- | --- | --- | --- | --- |
| Nc1ccccc1C(=O)/C=C/c1ccccc1 [Compound 1, 2′-Aminochalcone] | 1.43 ± 0.02 (≈ 6.4 µM) | 2.64 ± 0.47 (≈ 11.8 µM) | 2.06 ± 0.18 (≈ 9.23 µM) | 1.56 ± 0.04 (≈ 6.99 µM) | 1.43 ± 0.16 (≈ 6.4 µM) | 0.12 | 0.0 | 0.0 | 0.73 | 18.5 | – | – | – | – | MIC [1]: 0.25 µg/mL (≈ 1.12 µM); times higher activity than cisplatin, HT-29 ([6]; ratio of IC50 values vs cisplatin (19)): ~12 times; MIC ([7]; Aspergillus niger, DSM1957, 48–72 h, read-out: Minimal inhibitory concentration A. niger): 0.125 µg/mL (≈ 0.56 µM); Lag-phase E. coli ([8]; control 4.0 h): 10.0 h; MIC [11]: 1 µg/mL (≈ 4.48 µM); ∆OD C. albicans ([12]; OD at 560 nm, control 1.58): 0.14; Lag-phase C. albicans ([12]; control 3.0 h): 24.5 h; IC50 HT-29 (literature) [14]: 0.98 µg/mL (≈ 4.39 µM); IC50 ([14]; read-out: IC50 HT-29 (literature)): 4.39 µM |
| C[C@@H]1[C@H](O)[C@@H](C)/C=C/C=C/CC/C=C/C=C/C=C/C=C/C(O[C@H]2O[C@H](C)[C@@H](O)[C@H](N)[C@@H]2O)CC2O[C@](O)(CC(O)C(O)CCC(O)CC(O)CC(O)CC(=O)O[C@H]1C)CC(O)C2C(=O)O (stereo partly drawn) [Nystatin, reference compound] | – | – | – | – | – | – | – | 0.0 | 0.13 | 10.0 | 0.74 | 4.5 | – | – | Minimal inhibitory concentration F. linii ([16]; 48–72 h): 500 µg/mL (≈ 540 µM); Minimal inhibitory concentration A. niger ([7]; 48–72 h): 250 µg/mL (≈ 270 µM); Minimal inhibitory concentration A. alternata ([11]; 48–72 h): 1000 µg/mL (≈ 1080 µM) |
| Nc1ccc(C(=O)/C=C/c2ccc(Cl)cc2)cc1 [4′-amino-4-chlorochalcone] | – | – | – | – | – | – | – | – | – | – | – | – | 31.4 | – | – |
| Nc1ccc(C(=O)/C=C/c2ccc(F)cc2)cc1 [4′-amino-4-fluorochalcone] | – | – | – | – | – | – | – | – | – | – | – | – | 34.4 | – | – |
| Nc1ccc(C(=O)/C=C/c2ccccc2Cl)cc1 [4′-amino-2-chlorochalcone] | – | – | – | – | – | – | – | – | – | – | – | – | – | – | IC50 [18]: 26.2 µM |
| Nc1ccccc1C(=O)/C=C/c1ccc([N+](=O)[O-])cc1 [Compound 10, 2′-Amino-4-nitrochalcone] | 0.96 ± 0.12 (≈ 3.58 µM) | 1.79 ± 0.14 (≈ 6.67 µM) | 2 ± 0.35 (≈ 7.46 µM) | 1.11 ± 0.07 (≈ 4.14 µM) | 3.24 ± 0.27 (≈ 12.1 µM) | 0.0 | 0.15 | 0.20 | 0.0 | – | 0.79 | 23.0 | – | 0.5 (≈ 1.86 µM) | MIC [19]: 0.25 µg/mL (≈ 0.932 µM); MIC [20]: 0.5 µg/mL (≈ 1.86 µM); MIC ([16]; Fusarium, KBF1, 48–72 h, read-out: Minimal inhibitory concentration F. linii): 0.5 µg/mL (≈ 1.86 µM); Lag-phase S. aureus ([9]; control 2.5 h): 11.5 h; Lag-phase A. alternata ([10]; control 16.5 h): 0.5 h; melting point: 114 to 117 °C |
| Nc1cccc(C(=O)/C=C/c2ccccc2)c1 [Compound 2, 3′-Aminochalcone] | 1.97 ± 0.3 (≈ 8.82 µM) | 3.25 ± 0.66 (≈ 14.6 µM) | 2.13 ± 0.18 (≈ 9.54 µM) | 1.88 ± 0.12 (≈ 8.42 µM) | 1.6 ± 0.01 (≈ 7.17 µM) | 0.0 | 0.0 | 0.0 | 0.23 | 30.0 | 0.34 | 1.5 | – | – | MIC [1]: 0.25 µg/mL (≈ 1.12 µM); MIC [19]: 0.25 µg/mL (≈ 1.12 µM); MIC [20]: 0.5 µg/mL (≈ 2.24 µM); IC50 [22]: 1.6 to 2.13 µg/mL (≈ 7.17 to 9.54 µM); MIC [11]: 0.5 µg/mL (≈ 2.24 µM); melting point: 121 to 124 °C |
| Cc1ccc(/C=C/C(=O)c2ccccc2N)cc1 [2′-amino-4-methylchalcone] | – | – | – | – | – | – | – | – | – | – | – | – | 38.2 | – | – |
| OC(Cn1cncn1)(Cn1cncn1)c1ccc(F)cc1F [fluconazole] | – | – | – | – | – | – | – | – | – | – | – | – | – | 0.25 (≈ 0.816 µM) | – |
| Nc1ccccc1C(=O)/C=C/c1cccc([N+](=O)[O-])c1 [2′-amino-3-nitro-chalcone] | – | – | – | – | – | – | – | – | – | – | – | – | – | 0.5 (≈ 1.86 µM) | – |
